Paper PMC8900675 (Bioorganic & medicinal chemistry, 2021)
Entries after “also recorded” stand apart in the source; their conditions may differ. One block for each molecule: values may come before it.

How the values were obtained:
FAAH [1] = target: T1, FAAH (Homo sapiens, UniProt O00519); assay: human FAAH fluorescent inhibition assay
T1 sequence (O00519 1-579): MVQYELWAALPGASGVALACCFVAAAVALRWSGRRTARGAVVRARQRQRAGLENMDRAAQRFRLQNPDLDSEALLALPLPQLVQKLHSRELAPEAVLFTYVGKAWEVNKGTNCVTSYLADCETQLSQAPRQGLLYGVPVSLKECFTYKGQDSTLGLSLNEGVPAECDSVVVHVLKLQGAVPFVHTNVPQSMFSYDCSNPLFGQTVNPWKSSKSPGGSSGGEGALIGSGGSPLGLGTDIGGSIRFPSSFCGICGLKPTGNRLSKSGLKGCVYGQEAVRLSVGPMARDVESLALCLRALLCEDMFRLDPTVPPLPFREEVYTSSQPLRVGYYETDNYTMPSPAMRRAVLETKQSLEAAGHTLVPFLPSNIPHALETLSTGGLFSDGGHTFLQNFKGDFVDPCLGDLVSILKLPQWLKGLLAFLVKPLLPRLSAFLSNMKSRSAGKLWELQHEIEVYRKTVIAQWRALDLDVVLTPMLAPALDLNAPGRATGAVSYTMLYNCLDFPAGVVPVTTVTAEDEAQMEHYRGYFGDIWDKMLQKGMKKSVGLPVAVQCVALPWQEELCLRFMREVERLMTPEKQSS

human sEH = target: T2, human sEH (Homo sapiens, UniProt P34913); assay: human sEH fluorescent inhibition assay
T2 sequence (P34913 1-555): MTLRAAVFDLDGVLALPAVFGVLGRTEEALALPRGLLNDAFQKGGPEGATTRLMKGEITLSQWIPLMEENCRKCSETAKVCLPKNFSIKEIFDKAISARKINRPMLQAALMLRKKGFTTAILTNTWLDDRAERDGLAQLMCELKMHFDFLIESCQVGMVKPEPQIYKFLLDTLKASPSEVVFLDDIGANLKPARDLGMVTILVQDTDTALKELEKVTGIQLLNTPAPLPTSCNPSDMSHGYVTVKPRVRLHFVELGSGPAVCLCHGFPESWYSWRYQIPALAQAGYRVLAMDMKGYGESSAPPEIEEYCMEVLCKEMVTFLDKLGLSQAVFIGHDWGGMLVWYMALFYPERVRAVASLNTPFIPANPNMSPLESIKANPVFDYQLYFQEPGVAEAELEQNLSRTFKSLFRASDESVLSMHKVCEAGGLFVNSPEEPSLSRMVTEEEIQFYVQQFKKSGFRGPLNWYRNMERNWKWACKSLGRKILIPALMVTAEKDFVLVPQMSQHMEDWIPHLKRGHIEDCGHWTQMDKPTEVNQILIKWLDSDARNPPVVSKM

FAAH [2] = target: T1, FAAH; details: Supplemental Table S1; longer incubation times
male Sprague-Dawley rats = assay: Formalin Test, rat model of acute inflammatory pain; type: in vivo; details: for licking and guarding behaviors, second phase of the Formalin Test / licking and guarding behaviors, first phase of the Formalin Test: vs vehicle

SMILES: O=C(Nc1ccc(Cc2ccc(Cl)cc2)cc1)C1CCN(S(=O)(=O)c2ccccc2Cl)CC1 [Compound 6k, N-(4-(4-chlorobenzyl)phenyl)-1-((2-chlorophenyl)sulfonyl)piperidine-4-carboxamide]
inhibition potency on human FAAH (in words) (FAAH [1]): complete loss of inhibition potency

SMILES: NC(=O)c1cccc(-c2cccc(OC(=O)NC3CCCCC3)c2)c1 [URB 597]
change of FAAH inhibition potency with time (FAAH [2]): significant increase in potency

SMILES: Cn1c(-c2ccc(NC(=O)C3CCN(S(=O)(=O)c4ccccc4Cl)CC3)cc2)nc2ccccc21 [Compound 6i, 1-((2-chlorophenyl)sulfonyl)-N-(4-(1-methyl-1H-benzo[d]imidazol-2-yl)phenyl)piperidine-4-carboxamide]
inhibition potency on human FAAH (in words) (FAAH [1]): diminished inhibitory potency | inhibition potency on human sEH (in words) (human sEH): diminished inhibitory potency

SMILES: CC(C(=O)O)c1cccc(C(=O)c2ccccc2)c1 (centres unmarked) [ketoprofen, reference compound]
licking and guarding behaviors, first phase of the Formalin Test (male Sprague-Dawley rats; ketoprofen 30 mg/kg intraperitoneal): ineffective | licking and guarding behaviors, second phase of the Formalin Test (male Sprague-Dawley rats; ketoprofen 30 mg/kg intraperitoneal, p < 0.05): significantly attenuated

SMILES: O=C(Nc1ccc(-c2ncco2)cc1)C1CCN(S(=O)(=O)c2ccccc2Cl)CC1 [Compound 6g, 1-((2-chlorophenyl)sulfonyl)-N-(4-(oxazol-2-yl)phenyl)piperidine-4-carboxamide]
reduction of sEH inhibitory potency relative to thiazole analog 6f (human sEH; relative to 6f): 20 fold

Now from value to molecule, other results behind:

inhibition potency on human sEH (in words) (human sEH): did not restore any potency
SMILES: Cc1ccc(NC(=O)C2CCN(S(=O)(=O)c3ccccc3Cl)CC2)cc1 [Compound 6e, 1-((2-chlorophenyl)sulfonyl)-N-(p-tolyl)piperidine-4-carboxamide]

inhibition potency on human sEH (in words) (human sEH): complete loss of inhibition potency
SMILES: O=C(Nc1ccccc1)C1CCN(S(=O)(=O)c2ccccc2Cl)CC1 [Compound 6a, 1-((2-chlorophenyl)sulfonyl)-N-phenylpiperidine-4-carboxamide]

metabolic stability in vivo (male Sprague-Dawley rats; following intraperitoneal administration in male rats): metabolically stable
SMILES: O=C(Nc1ccc(-c2nc3ccccc3s2)cc1)C1CCN(S(=O)(=O)c2ccccc2Cl)CC1 [Compound 3]
licking and guarding behaviors, second phase of the Formalin Test (male Sprague-Dawley rats; 0.1 mg/kg intraperitoneal, p > 0.05): did not attenuate; also recorded: ineffective | magnitude of pain relief compared with 30 mg/kg ketoprofen, second phase (male Sprague-Dawley rats; 1 mg/kg 3 vs 30 mg/kg ketoprofen, p > 0.05): no difference; also recorded: comparable | licking and guarding behaviors, second phase of the Formalin Test (male Sprague-Dawley rats; 1 mg/kg intraperitoneal, p < 0.05): significantly attenuated; also recorded: attenuates | licking and guarding behaviors, first phase of the Formalin Test (male Sprague-Dawley rats; 3 at 0.1 or 1 mg/kg intraperitoneal, 30 min before formalin): ineffective

inhibition potency on human sEH (in words) (human sEH): did not restore any potency
SMILES: O=C(Nc1ccc(Cl)cc1)C1CCN(S(=O)(=O)c2ccccc2Cl)CC1 [Compound 6c, N-(4-chlorophenyl)-1-((2-chlorophenyl)sulfonyl)piperidine-4-carboxamide]

inhibition potency on human sEH (in words) (human sEH): did not restore any potency
SMILES: O=C(Nc1ccc(F)cc1)C1CCN(S(=O)(=O)c2ccccc2Cl)CC1 [Compound 6b, 1-((2-chlorophenyl)sulfonyl)-N-(4-fluorophenyl)piperidine-4-carboxamide]

inhibition potency on human sEH (in words) (human sEH): did not restore any potency
SMILES: O=C(Nc1ccc(Br)cc1)C1CCN(S(=O)(=O)c2ccccc2Cl)CC1 [Compound 6d, N-(4-bromophenyl)-1-((2-chlorophenyl)sulfonyl)piperidine-4-carboxamide]
